Experiment in all cases: selective drug sensitivity score (sDSS, relative to normal bone marrow) (sDSS (score)); higher = more potent and effective on the cell line relative to normal bone marrow cells
What all share (conditions): 72 h

In assay [1] the test system is PEER.
Assay [2] deals with KASUMI-9.
Assay [3] deals with TMD5.
The test system of assay [4] is 380.
Assay [5] deals with MHH-CALL-4.
Assay [6] deals with ALL-PO.
The test system of assay [7] is KASUMI-2.
Assay [8] has as its system MHH-CALL-2.
The subject of assay [9] is P30-OHKUBO.
In assay [10] the test system is HPB-ALL.
In assay [11] the test system is COG-LL-355h.
Assay [12] concerns COG-LL-332h.
Assay [13] concerns HAL-01.
Assay [14] relates to COG-LL-317.
Assay [15] has as its system RPMI-8402.
Assay [16] has as its system KARPAS-45.
Assay [17] concerns MOLT-14.
Assay [18] has as its system DND-41.
In assay [19] the test system is NALM-6.
The test system of assay [20] is MOLT-4.
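Note: ALL cell lines in 384-well plates, five doses spanning 10,000-fold, each plate scaled between vehicle and 100 µmol/L benzalkonium chloride controls, sDSS an adapted area-under-curve metric.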

As to `CC[C@]1(O)C[C@H]2CN(CCc3c([nH]c4ccccc34)[C@@](C(=O)OC)(c3cc4c(cc3OC)N(C)[C@H]3[C@@](O)(C(=O)OC)[C@H](OC(C)=O)[C@]5(CC)C=CCN6CC[C@]43[C@@H]65)C2)C1` [Vinblastine] (top concentration 1000 nM), the “selective drug sensitivity score” value in [1] is -0.9; in [2], 14.9; in assay [3], -4.9; in [4], 7; in [5], -5.6; in assay [6], 7.2. Further, the “selective drug sensitivity score” value is 6.7 in assay [7]; -3.2 in assay [8]; 9.8 in [9]; 19.7 in [10]; -0.6 in assay [11]; -4.2 in assay [12]. In addition, the “selective drug sensitivity score” value in [13] was -5.1; in [14] it was -0.2; in assay [15], 1.6; in assay [16] it was -4.2; in assay [17], -2.5; in [18] it was -0.7. Moreover, the “selective drug sensitivity score” value was 6.3 in assay [19] and -3.5 in assay [20].

`CC[C@]1(O)C[C@H]2CN(CCc3c([nH]c4ccccc34)[C@@](C(=O)OC)(c3cc4c(cc3OC)N(C=O)[C@H]3[C@@](O)(C(=O)OC)[C@H](OC(C)=O)[C@]5(CC)C=CCN6CC[C@]43[C@@H]65)C2)C1` [Vincristine] (top concentration 1000 nM): the “selective drug sensitivity score” value in assay [1] is 6.82; in assay [2], 15.9; in assay [3] it was -0.08; in assay [4], 14.9; in assay [5] it was -2.28; in [6], 8.32. The “selective drug sensitivity score” value came out at 8.92 in [7]; 5.52 in assay [8]; 17.4 in [9]; 14.1 in assay [10]; 1.22 in assay [11]; 4.22 in assay [12]. Also, the “selective drug sensitivity score” value in assay [13] is -6.38; in [14], 8.92; in assay [15] it was 4.72; in assay [16], 5.92; in assay [17] it was 7.72; in assay [18], 2.02. For the same compound, the “selective drug sensitivity score” value in assay [19] worked out at 10.7; in assay [20], 4.02.

In the case of `FC(F)c1nc2ccccc2n1-c1nc(N2CCOCC2)nc(N2CCOCC2)n1` [ZSTK474] (top concentration 10000 nM), the “selective drug sensitivity score” value in [1] is -3.64; in assay [2], 9.86; in assay [3] it was -1.04; in assay [4] it was 13.7; in [5], 7.46; in [6], 10.5. Also, the “selective drug sensitivity score” value is 6.76 in [7]; 11.4 in [8]; 13.3 in assay [9]; -1.04 in assay [10]; 14.4 in [11]; 3.86 in [12]. For the same compound, the “selective drug sensitivity score” value is 18.5 in assay [13]; 1.46 in assay [14]; 5.86 in assay [15]; 5.96 in [16]; -4.14 in assay [17]; -3.14 in assay [18]. In addition, the “selective drug sensitivity score” value amounted to 11.9 in assay [19] and 7.26 in [20].
